Experimental data published in DBAASP.
In brackets after ≈: the same amount, converted by molar mass. Several values for one entry are separate records, joined by “and”; a condition that tells them apart may be missing. Equal entries are not always repeated. One block for each compound: values may come before it.

Assays:
Assay in all cases: ≥ marks a high value that may be exact or a test limit, other limits are often not marked, values filed in µg/mL are converted to µM
[1] = tested on: Candida albicans 08022821
[2] = tested on: Escherichia coli ATCC 25922
[3] = tested on: Staphylococcus aureus 08032706
[4] = tested on: Candida albicans 08030102
[5] = tested on: Candida albicans 08022710
[6] = tested on: Candida albicans 08030809
[7] = tested on: Candida albicans 08030401
[8] = tested on: Staphylococcus epidermidis
[9] = tested on: Salmonella enterica subsp. enterica serovar Paratyphi A
Nocardia asteroides = tested on: Nocardia asteroides
[10] = tested on: Enterococcus faecium 1299
Klebsiella pneumoniae = tested on: Klebsiella pneumoniae
[11] = tested on: Stenotrophomonas maltophilia
Bacillus cereus = tested on: Bacillus cereus
Shigella sp. = tested on: Shigella sp.
Candida glabrata 08A802 = tested on: Candida glabrata 08A802
Escherichia coli = tested on: Escherichia coli
[12] = tested on: Candida glabrata 09050201
[13] = tested on: Staphylococcus aureus NCTC 9144
Staphylococcus aureus 15 = tested on: Staphylococcus aureus 15
[14] = tested on: Acinetobacter baumannii ATCC 17987
[15] = tested on: Xanthomonas axonopodis pv. phaseoli
Escherichia coli BL21 = tested on: Escherichia coli BL21
Escherichia coli LEC 001 = tested on: Escherichia coli LEC 001
[16] = tested on: Acinetobacter baumannii NCTC 13424
[17] = tested on: Enterococcus faecalis NCTC 12204
Acinetobacter baumannii = tested on: Acinetobacter baumannii
[18] = tested on: Xanthomonas axonopodis pv. phaseoli ATCC 9563
[19] = tested on: Klebsiella pneumoniae NCTC 13368
[20] = tested on: Streptococcus pyogenes GAS M1T1
[21] = tested on: Acinetobacter baumannii AYE
Klebsiella pneumoniae M6 = tested on: Klebsiella pneumoniae M6
[22] = tested on: Enterococcus faecalis NCTC 775
Escherichia coli 319238 = tested on: Escherichia coli 319238
[23] = tested on: Pseudomonas syringae pv. tomato
[24] = tested on: Enterococcus faecalis NCTC 12201
[25] = tested on: Pseudomonas aeruginosa NCTC 13437
Pseudomonas syringae = tested on: Pseudomonas syringae
[26] = tested on: Escherichia coli NCTC 12923
[27] = tested on: Escherichia coli CFI_161_NDM
[28] = tested on: Pseudomonas aeruginosa PAO1
[29] = tested on: Acinetobacter baylyi ADP1
[30] = tested on: Acinetobacter baumannii NCTC 13302
[31] = tested on: Escherichia coli CFI_160_KPC2
[32] = tested on: Xanthomonas axonopodis pv. glycines
[33] = tested on: Staphylococcus aureus ATCC 25923

MIC [1]: 11.1 µM (≈ 37.5 µg/mL)
MIC [2]: 11.1 µM (≈ 37.5 µg/mL)
MIC [3]: 22.1 µM (≈ 75 µg/mL)
MIC [4]: 5.53 µM (≈ 18.8 µg/mL)
MIC [5]: 11.1 µM (≈ 37.5 µg/mL)
MIC [6]: 11.1 µM (≈ 37.5 µg/mL)
MIC [7]: 11.1 µM (≈ 37.5 µg/mL)
MIC [8]: 22.1 µM (≈ 75 µg/mL)
MIC [9]: 22.1 µM (≈ 75 µg/mL)
MIC (Nocardia asteroides): 11.1 µM (≈ 37.5 µg/mL)
MIC [10]: 5.53 µM (≈ 18.8 µg/mL)
MIC (Klebsiella pneumoniae): 22.1 µM (≈ 75 µg/mL)
MIC [11]: 2.77 µM (≈ 9.38 µg/mL)
MIC (Bacillus cereus): 2.77 µM (≈ 9.38 µg/mL)
MIC (Shigella sp.): 0.691 µM (≈ 2.34 µg/mL)
MIC (Candida glabrata 08A802): 11.1 µM (≈ 37.5 µg/mL)
MIC (Escherichia coli): 22.1 µM (≈ 75 µg/mL)
MIC [12]: 22.1 µM (≈ 75 µg/mL)
SMILES: CC[C@H](C)[C@H](NC(=O)[C@H](CO)NC(=O)[C@H](CO)NC(=O)CNC(=O)CNC(=O)CNC(=O)[C@H](C)NC(=O)[C@H](Cc1ccccc1)NC(=O)[C@H](Cc1ccccc1)NC(=O)[C@H](CCCCN)NC(=O)[C@H](CCCCN)NC(=O)[C@H](CC(C)C)NC(=O)[C@H](CCCN=C(N)N)NC(=O)[C@H](CCCN=C(N)N)NC(=O)[C@H](CCSC)NC(=O)[C@H](Cc1ccccc1)NC(=O)[C@H](CCCCN)NC(=O)[C@H](CCCN=C(N)N)NC(=O)[C@H](Cc1ccccc1)NC(=O)CNC(=O)[C@H](CC(N)=O)NC(=O)[C@H](CCCN=C(N)N)NC(=O)[C@@H](N)CCCCN)C(=O)N[C@@H](C)C(=O)N[C@@H](Cc1cnc[nH]1)C(=O)N[C@H](C(=O)N[C@@H](CCCCN)C(=O)N[C@@H](CC(C)C)C(=O)N[C@@H](Cc1cnc[nH]1)C(=O)O)[C@@H](C)CC [KRNGFRKFMRRLKKFFAGGGSSIAHIKLH]

MIC [13]: 2.52 µM (≈ 8 µg/mL)
MIC (Staphylococcus aureus 15): ≥ 40.3 µM
MIC [14]: 0.315 µM (≈ 1 µg/mL)
MIC [15]: 0.0786 µM (≈ 0.25 µg/mL)
MIC (Escherichia coli BL21): 2 µM (≈ 6.36 µg/mL)
MIC (Escherichia coli LEC 001): 2.52 µM (≈ 8 µg/mL)
MIC [16]: 0.629 µM (≈ 2 µg/mL)
MIC [17]: 5.03 µM (≈ 16 µg/mL)
MIC (Acinetobacter baumannii): 0.315 µM (≈ 1 µg/mL)
MIC [18]: 0.25 µM (≈ 0.795 µg/mL)
MIC [19]: 5.03 µM (≈ 16 µg/mL)
MIC [20]: 8 µM (≈ 25.4 µg/mL)
MIC [21]: 0.315 µM (≈ 1 µg/mL)
MIC (Klebsiella pneumoniae M6): 2.52 µM (≈ 8 µg/mL)
MIC [22]: ≥ 40.3 µM
MIC (Escherichia coli 319238): 1.26 µM (≈ 4 µg/mL)
MIC [23]: 0.0786 µM (≈ 0.25 µg/mL)
MIC [24]: ≥ 40.3 µM
MIC [25]: ≥ 40.3 µM
MIC (Pseudomonas syringae): 8 µM (≈ 25.4 µg/mL)
MIC [26]: 0.157 µM (≈ 0.5 µg/mL)
MIC [27]: 0.315 µM (≈ 1 µg/mL)
MIC [28]: 8 µM and 5.03 µM
MIC [29]: 0.629 µM (≈ 2 µg/mL)
MIC [30]: 0.315 µM (≈ 1 µg/mL)
MIC [31]: 0.629 µM (≈ 2 µg/mL)
SMILES: CC[C@H](C)[C@H](NC(=O)[C@H](CCCCN)NC(=O)[C@H](CCC(=O)O)NC(=O)[C@H](CCCCN)NC(=O)[C@H](Cc1c[nH]c2ccccc12)NC(=O)[C@H](C)N)C(=O)N[C@@H](CCCN=C(N)N)C(=O)N[C@@H](CCCCN)C(=O)N[C@@H](CCCCN)C(=O)N[C@@H](CC(C)C)C(=O)N[C@@H](CCCCN)C(=O)N[C@@H](CC(N)=O)C(=O)N[C@@H](CCC(=O)O)C(=O)N[C@H](C(=O)N[C@@H](CCCCN)C(=O)N[C@@H](CCCCN)C(=O)N[C@@H](CCCCN)C(=O)N[C@@H](Cc1c[nH]c2ccccc12)C(=O)N[C@@H](CCCN=C(N)N)C(=O)N[C@@H](CCCCN)C(=O)N[C@@H](C)C(=O)N[C@H](C(=O)N[C@H](C(=O)N[C@@H](C)C(=O)N[C@@H](Cc1c[nH]c2ccccc12)C(=O)O)[C@@H](C)CC)C(C)C)[C@@H](C)CC [AWKEKIRKKLKNEIKKKWRKAVIAW]

MIC [2]: 17.8 µM (≈ 35.3 µg/mL)
MIC [32]: 2 µM (≈ 3.96 µg/mL)
MIC [33]: 32.3 µM (≈ 64 µg/mL)
SMILES: CC[C@H](C)[C@H](NC(=O)[C@@H](NC(=O)[C@H](CO)NC(=O)[C@H](Cc1c[nH]c2ccccc12)NC(=O)[C@H](CC(C)C)NC(=O)CN)[C@@H](C)O)C(=O)N[C@@H](CCCCN)C(=O)N[C@@H](CC(N)=O)C(=O)N[C@H](C(=O)N[C@@H](C)C(=O)N[C@@H](C)C(=O)N[C@@H](C)C(=O)N[C@@H](C)C(=O)NCC(=O)N[C@@H](CCCCN)C(=O)N[C@@H](C)C(=O)N[C@@H](C)C(=O)N[C@@H](CC(C)C)C(=O)NCC(=O)N[C@@H](C)C(=O)N[C@@H](CC(C)C)C(N)=O)C(C)C [GLWSTIKNVAAAAGKAALGAL]
